From paper PMC11677424, “Early-Stage IM Treatment with the Host-Derived Immunostimulant CPDI-02 Increases Curative Protection of Healthy Outbred Mice Against Subcutaneous Infection with Community-Acquired Methicillin-Resistant Staphylococcus aureus USA300” (Pharmaceutics, 2024)

Tested on: healthy male and female outbred CD-1 mice
Assay: Repeat IM dosing in healthy CD-1 mice
Format: in vivo
Method: Sixty CD-1 mice (thirty male and thirty female) approximately six weeks old were randomized into six cohorts (three cohorts for each gender) and then intramuscularly administered either vehicle alone (filter-sterilized 0.2 μm endotoxin-free PBS), vehicle containing CPDI-02 at 50% the observed MTD [65 mg/kg], or CPDI-02 suspended in PBS at 100% the observed MTD [130 mg/kg] twice a week over 32 days (nine doses total). Mice were weighed prior to each dose administration. On the day of administration, mice were assigned a Pain and Distress Assessment Score (Table S1). Four days after the last treatment, through terminal cardiac bleed, whole blood was collected for complete blood count (CBC) with differential (Abaxis VetScan® HM5 Hematology Analyzer, Union City, CA, USA) and blood chemistry (Abaxis VetScan® VS-2 Blood Chemistry Analyzer). In addition, injection site muscle tissues were collected, fixed in 10% formalin for 48 h, and then embedded in paraffin. Paraffin samples were cut into sections and underwent an H&E stain, then analyzed for signs of inflammation and other tissue abnormalities utilizing a Nikon Eclipse E600 (Nikon Corporation, Tokyo, Japan) at 200× magnification, and imaged using a Lumenera Infinity 2 Microscope Camera.

SMILES: CSCC[C@H](NC(=O)[C@H](CC(=O)O)NC(=O)[C@H](CCCCN)NC(=O)[C@H](Cc1ccccc1)NC(=O)[C@H](CO)NC(=O)[C@@H](N)Cc1ccc(O)cc1)C(=O)N1CCC[C@H]1C(=O)N(C)[C@@H](CC(C)C)C(=O)N[C@H](C)C(=O)N[C@@H](CCCNC(=N)N)C(=O)O [CPDI-02]
- inflammation around the injection site vs vehicle alone (IM 65 and 130 mg/kg, dose-dependent, greater proportion of female than male mice, H&E): increased signs of mild to severe inflammation
- mortality vs vehicle alone (female mice, repeat IM 130 mg/kg, after the eighth and ninth IM injection, p = 0.0022): increased mortality
- signs of distress up to 2 h after injection (male and female CD-1 mice, IM 65 or 130 mg/kg, 9 injections, any treatment group): No signs of distress
- weight gain (male or female CD-1 mice, IM 65 or 130 mg/kg twice per week over 32 days, 9 injections, n = 10): no effect
- effect on CBC (including platelets, platecrit) or blood chemistry vs vehicle alone (male or female mice, IM 65 or 130 mg/kg, up to 4 days after final injection (Day 32), n = 5): did not
- inflammation in thymus, heart, lungs, brain, liver, spleen, kidneys, femur bone marrow, popliteal lymph nodes, Peyer's patches (repeat IM 65 or 130 mg/kg, H&E): no signs of inflammation
